Experimental data published in ChEMBL document CHEMBL1201862, “PubChem BioAssay data set” (2004).
Calls of active or inactive are those of the source.

What was measured:
[1] = alpha-synuclein stem-loop luciferase translation blockers – H4 neuroglioma cells, luminescence, confirmation (AID 1988); format: functional, cell-based
[2] = luciferase reporter signal suppression in cells – H4 neuroglioma cells, luminescence, dose response (AID 1990); format: functional, cell-based
[3] = molecular target: Sphingosine 1-phosphate receptor 2 (Homo sapiens, UniProt O95136); assay: Dose Response Cell Based Assay for Antagonists of the S1P2 Receptor. [Related pubchem assays: 856, 736 ]; format: functional
Sphingosine 1-phosphate receptor 2, sequence (O95136 whole entry): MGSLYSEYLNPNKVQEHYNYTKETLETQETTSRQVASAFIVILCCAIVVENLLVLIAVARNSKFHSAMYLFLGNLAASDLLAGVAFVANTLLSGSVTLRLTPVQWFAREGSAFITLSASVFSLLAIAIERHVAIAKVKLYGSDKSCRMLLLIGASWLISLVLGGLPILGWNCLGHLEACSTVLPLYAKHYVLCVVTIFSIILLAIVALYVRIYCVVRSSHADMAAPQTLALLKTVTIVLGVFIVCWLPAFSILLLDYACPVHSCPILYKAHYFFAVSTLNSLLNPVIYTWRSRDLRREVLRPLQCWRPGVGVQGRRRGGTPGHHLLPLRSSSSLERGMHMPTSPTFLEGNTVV

[4] = Luminescence Cell-Based Dose Response HTS to Identify Inhibitors of 5'UTR Stem-Loop Driven Prion Protein mRNA Translation in H4 Neuroglioblastoma Cells. [Related pubchem assays: 1827 (Project Summary), 1813 (Primary HTS)]; format: functional
Bcl-2-related protein A1 [5] = molecular target: T1, Bcl-2-related protein A1 (Mus musculus, UniProt Q07440); assay: Bfl-1 binding inhibitors, SAR follow-up, biochemical, fluorescence polarization (AID 1070)
T1 sequence (Q07440 whole entry): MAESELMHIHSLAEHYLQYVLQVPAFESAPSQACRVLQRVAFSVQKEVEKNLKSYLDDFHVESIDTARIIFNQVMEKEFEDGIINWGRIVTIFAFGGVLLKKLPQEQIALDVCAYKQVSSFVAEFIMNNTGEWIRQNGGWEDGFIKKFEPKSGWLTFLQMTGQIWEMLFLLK

Bcl-2-related protein A1 [6] = molecular target: T1, Bcl-2-related protein A1; assay: small-molecule antagonists of Bfl-1/BH3 interaction – biochemical, TR-FRET, mouse Bfl-1, confirmation (AID 621);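 also: TR-FRET binding of GST-Bfl-1 to FITC-labelled Bid peptide via terbium antibody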
Mucolipin-3 = molecular target: T2, Mucolipin-3 (Homo sapiens, UniProt Q8TDD5); assay: Dose response cell-based high-throughput screening assay for agonists of the transient receptor potential channel ML3 (TRPML3). [Related pubchem assays: 1526, 1424, 1448 ]; format: functional
T2 sequence (Q8TDD5 whole entry): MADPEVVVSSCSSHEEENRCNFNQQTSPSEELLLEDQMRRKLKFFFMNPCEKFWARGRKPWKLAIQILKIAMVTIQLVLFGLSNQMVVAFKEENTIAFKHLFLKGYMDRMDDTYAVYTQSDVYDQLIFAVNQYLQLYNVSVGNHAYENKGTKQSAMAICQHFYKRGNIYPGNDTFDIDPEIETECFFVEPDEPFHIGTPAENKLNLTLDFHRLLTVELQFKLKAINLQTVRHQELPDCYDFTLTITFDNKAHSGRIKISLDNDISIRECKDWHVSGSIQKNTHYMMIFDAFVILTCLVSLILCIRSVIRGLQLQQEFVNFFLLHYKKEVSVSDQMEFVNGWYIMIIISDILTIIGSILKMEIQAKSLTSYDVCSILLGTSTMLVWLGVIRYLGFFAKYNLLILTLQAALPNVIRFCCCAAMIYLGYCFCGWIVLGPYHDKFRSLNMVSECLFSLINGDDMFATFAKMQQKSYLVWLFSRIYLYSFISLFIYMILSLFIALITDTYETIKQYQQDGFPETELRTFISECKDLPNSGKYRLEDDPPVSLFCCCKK

Ion channel NompC = Ion channel NompC (Danio rerio, UniProt Q7T1G6); assay: Fluorescence counterscreen assay for TRPML3 agonists: dose response cell-based high-throughput screening assay to identify agonists of the transient receptor potential channel N1 (TRPN1). [Related pubchem assays: 1526, 1424, 1448 ]; format: functional
Ion channel NompC, sequence (Q7T1G6 whole entry): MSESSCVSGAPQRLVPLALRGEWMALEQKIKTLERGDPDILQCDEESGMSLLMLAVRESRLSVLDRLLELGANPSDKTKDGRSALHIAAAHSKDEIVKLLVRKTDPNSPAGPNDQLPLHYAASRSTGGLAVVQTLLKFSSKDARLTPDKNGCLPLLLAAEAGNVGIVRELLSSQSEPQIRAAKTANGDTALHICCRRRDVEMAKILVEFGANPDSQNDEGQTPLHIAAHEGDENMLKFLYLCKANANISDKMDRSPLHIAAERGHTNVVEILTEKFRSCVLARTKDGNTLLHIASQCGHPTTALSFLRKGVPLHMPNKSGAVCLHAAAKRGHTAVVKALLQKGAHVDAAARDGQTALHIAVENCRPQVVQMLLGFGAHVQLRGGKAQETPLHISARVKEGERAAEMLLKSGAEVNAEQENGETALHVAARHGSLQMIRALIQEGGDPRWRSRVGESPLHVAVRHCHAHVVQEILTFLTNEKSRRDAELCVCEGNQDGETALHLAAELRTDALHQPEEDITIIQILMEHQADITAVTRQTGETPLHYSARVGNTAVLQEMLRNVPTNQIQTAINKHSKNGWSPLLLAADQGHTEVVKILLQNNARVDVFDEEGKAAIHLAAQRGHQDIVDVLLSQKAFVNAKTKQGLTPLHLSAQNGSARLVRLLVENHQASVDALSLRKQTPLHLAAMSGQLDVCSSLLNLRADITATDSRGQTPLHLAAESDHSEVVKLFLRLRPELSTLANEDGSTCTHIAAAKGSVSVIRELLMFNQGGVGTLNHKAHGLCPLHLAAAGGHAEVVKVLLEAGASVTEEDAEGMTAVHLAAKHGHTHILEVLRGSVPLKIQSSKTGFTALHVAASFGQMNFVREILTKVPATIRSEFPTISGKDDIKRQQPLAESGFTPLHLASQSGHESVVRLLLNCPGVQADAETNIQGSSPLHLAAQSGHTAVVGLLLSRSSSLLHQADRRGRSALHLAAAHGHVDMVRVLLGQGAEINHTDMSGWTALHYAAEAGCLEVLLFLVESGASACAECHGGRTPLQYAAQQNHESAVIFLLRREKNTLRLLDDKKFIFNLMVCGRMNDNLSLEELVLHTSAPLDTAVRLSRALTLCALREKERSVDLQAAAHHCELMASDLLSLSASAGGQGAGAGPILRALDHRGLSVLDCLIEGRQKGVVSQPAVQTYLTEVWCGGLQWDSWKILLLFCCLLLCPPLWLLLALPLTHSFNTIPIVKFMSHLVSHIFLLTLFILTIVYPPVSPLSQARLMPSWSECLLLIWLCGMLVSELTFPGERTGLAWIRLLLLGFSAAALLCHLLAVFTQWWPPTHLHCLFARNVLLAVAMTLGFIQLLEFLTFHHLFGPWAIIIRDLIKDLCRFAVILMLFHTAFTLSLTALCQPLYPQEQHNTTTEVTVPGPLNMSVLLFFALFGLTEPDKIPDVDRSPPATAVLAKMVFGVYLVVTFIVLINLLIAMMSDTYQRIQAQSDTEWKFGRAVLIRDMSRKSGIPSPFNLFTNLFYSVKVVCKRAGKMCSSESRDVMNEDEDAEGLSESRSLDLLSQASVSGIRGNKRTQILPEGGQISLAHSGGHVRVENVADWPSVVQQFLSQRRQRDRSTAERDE

[7] = molecular target: T3, Mannose-6-phosphate isomerase (Homo sapiens, UniProt P34949); assay: MPI inhibition at elevated mannose 6-phosphate – biochemical, fluorescence intensity, high mannose 6-phosphate, primary screen (AID 1220)
T3 sequence (P34949 whole entry): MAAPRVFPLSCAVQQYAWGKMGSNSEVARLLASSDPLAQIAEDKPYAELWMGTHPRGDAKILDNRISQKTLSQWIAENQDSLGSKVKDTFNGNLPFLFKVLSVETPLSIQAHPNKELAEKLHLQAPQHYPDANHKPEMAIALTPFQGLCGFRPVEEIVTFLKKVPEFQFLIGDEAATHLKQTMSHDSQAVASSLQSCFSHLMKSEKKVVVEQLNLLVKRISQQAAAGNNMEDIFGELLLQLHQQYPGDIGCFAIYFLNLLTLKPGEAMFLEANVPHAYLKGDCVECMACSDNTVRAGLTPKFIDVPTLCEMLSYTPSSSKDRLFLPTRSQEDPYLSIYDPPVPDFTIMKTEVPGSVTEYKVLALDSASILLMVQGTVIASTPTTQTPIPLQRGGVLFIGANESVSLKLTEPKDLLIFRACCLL

[8] = Luminescence Cell-Based Dose Retest to Confirm Inhibitors of Cancer Stem Cells. [Related pubchem assays (depositor defined):AID2717, AID2721]; format: functional; details: Homo sapiens
fMet-Leu-Phe receptor = molecular target: T4, fMet-Leu-Phe receptor (Homo sapiens, UniProt P21462); assay: formyl peptide receptor binders – dose response (AID 519); format: functional
T4 sequence (P21462 whole entry): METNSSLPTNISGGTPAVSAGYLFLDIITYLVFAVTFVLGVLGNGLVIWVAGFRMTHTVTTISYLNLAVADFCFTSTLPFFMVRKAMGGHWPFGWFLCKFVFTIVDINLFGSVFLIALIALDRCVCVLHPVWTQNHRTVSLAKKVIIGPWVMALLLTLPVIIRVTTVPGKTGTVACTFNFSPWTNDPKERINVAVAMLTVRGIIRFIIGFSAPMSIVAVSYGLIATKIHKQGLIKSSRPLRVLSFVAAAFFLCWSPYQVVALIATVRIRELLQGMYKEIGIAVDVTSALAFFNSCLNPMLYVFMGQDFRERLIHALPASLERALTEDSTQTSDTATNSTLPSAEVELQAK
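For AC50 in this document: cells exposed to compound for roughly 70 hours or longer before luminescence read.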

O=C(c1cc(NC(=O)C23CC4CC(CC(C4)C2)C3)cc(NC(=O)C23CC4CC(CC(C4)C2)C3)c1)N1CCCCC1
EC50 [1]: 12.2 µM (inconclusive) | EC50 [2]: 17.1 µM (active) | IC50 [3]: 0.977 µM (active) | EC50 [4]: 15.7 µM (active)

Clc1ccc(-n2nnc(-c3cnc4ccccc4c3)n2)cn1
IC50 (Bcl-2-related protein A1 [5]): > 100 µM (not active) | IC50 (Bcl-2-related protein A1 [6]): > 100 µM (not active)

COC(=O)c1cnc(N2CCCN(S(=O)(=O)c3ccccc3)CC2)nc1C(F)(F)F
EC50 (Mucolipin-3): > 29.9 µM (not active) | EC50 (Ion channel NompC): > 29.9 µM (not active)

O=C(NCCN1CCOCC1)NC1(C(F)(F)F)Oc2ccc(Cl)cc2O1 (stereo unspecified)
IC50 [7]: > 50 µM (not active) | AC50 [8]: 7.37 µM (active) | Ki (fMet-Leu-Phe receptor): > 66.7 µM (inactive)
